Results reported in ChEMBL document CHEMBL2074227, “Antiestrogens and steroid hormones: substrates of the human P-glycoprotein” (Biochem Pharmacol, 1994).

Target: ATP-dependent translocase ABCB1 (Homo sapiens, UniProt P08183)
Test: TP_TRANSPORTER: ATP hydrolysis in MDR1-expressing Sf9 cells
Format: functional

Chain of ATP-dependent translocase ABCB1 (P08183 whole entry): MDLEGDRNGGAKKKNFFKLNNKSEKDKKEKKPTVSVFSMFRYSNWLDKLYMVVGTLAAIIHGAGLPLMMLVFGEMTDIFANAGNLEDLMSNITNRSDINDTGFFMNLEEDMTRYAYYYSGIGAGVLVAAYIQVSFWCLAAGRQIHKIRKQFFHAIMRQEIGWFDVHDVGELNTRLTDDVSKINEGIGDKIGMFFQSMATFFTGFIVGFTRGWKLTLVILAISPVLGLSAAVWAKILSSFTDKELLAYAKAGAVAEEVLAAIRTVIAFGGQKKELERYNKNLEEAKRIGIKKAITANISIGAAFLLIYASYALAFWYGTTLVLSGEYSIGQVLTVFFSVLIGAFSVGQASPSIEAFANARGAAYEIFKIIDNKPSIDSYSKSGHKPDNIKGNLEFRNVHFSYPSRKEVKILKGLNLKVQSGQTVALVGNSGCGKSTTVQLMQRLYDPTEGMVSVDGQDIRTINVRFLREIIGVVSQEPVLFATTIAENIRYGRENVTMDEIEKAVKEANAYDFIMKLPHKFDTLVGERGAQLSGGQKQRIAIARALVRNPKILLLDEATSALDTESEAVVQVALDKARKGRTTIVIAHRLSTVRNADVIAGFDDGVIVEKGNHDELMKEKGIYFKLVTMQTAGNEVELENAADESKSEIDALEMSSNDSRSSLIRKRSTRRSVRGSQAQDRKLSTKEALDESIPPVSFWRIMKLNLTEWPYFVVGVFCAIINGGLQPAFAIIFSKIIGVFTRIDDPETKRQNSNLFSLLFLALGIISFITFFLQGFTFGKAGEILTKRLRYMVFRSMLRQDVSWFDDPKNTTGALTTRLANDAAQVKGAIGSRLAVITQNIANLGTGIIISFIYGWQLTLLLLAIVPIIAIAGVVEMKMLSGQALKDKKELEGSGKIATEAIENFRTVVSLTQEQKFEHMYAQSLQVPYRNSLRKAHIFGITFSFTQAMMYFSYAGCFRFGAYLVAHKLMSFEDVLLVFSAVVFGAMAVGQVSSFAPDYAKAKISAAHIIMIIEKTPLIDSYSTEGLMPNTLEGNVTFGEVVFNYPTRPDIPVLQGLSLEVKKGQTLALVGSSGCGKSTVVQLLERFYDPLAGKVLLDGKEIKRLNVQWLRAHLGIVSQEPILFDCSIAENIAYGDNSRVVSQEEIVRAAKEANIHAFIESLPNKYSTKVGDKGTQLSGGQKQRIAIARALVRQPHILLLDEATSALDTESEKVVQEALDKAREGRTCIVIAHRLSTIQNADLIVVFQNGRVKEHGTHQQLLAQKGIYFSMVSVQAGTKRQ

SMILES | Activity
CCC(=C(c1ccc(O)cc1)c1ccc(OCCN(C)C)cc1)c1ccccc1 | substrate [+]
CCN(CC)CCOc1ccc(C(=C(Cl)c2ccccc2)c2ccccc2)cc1 [CLOMIPHENE] | substrate [+]
C[C@]12C[C@H](O)[C@H]3[C@@H](CCC4=CC(=O)CC[C@@]43C)[C@@H]1CC[C@@H]2C(=O)CO [CORTICOSTERONE] | substrate [+]
CC/C(=C(\c1ccccc1)c1ccc(OCCN)cc1)c1ccccc1 [DESMETHYL TAMOXIFEN] | substrate [+]
CC/C(=C(/CC)c1ccc(O)cc1)c1ccc(O)cc1 [DIETHYLSTILBESTROL] | substrate [+]
CC/C(=C(/c1ccc(OCCN(C)C)cc1)c1cccc(O)c1)c1ccccc1 [DROLOXIFENE] | substrate [+]
C[C@]12CC[C@@H]3c4ccc(O)cc4CC[C@H]3[C@@H]1CC[C@@H]2O [ESTRADIOL] | substrate [+]
COc1ccc2c(c1)CCC(c1ccccc1)=C2c1ccc(OCCN2CCCC2)cc1 [NAFOXIDINE] | substrate [+]
CN(C)CCOc1ccc(/C(=C(/CCCl)c2ccccc2)c2ccccc2)cc1 [TOREMIFENE] | substrate [+]
